Measured values published in patent US20180148418A1, “AMIDO-SUBSTITUTED CYCLOHEXANE DERIVATIVES” (Bayer Pharma Aktiengesellschaft, priority 2015, published 2018).
Where a name gives a salt, the structure may show the parent alone.

Experiments:
TNKS2 = molecular target: T1, TNKS2 (Homo sapiens, UniProt Q9H2K2); test: TNKS2 Assay B (auto-parsylation, [3H]-NAD+ SPA); assay type: biochemical; settings: 6 nM TNKS2, auto-parsylation, over night at room temperature
T1 construct: purchased BPS Bioscience, San Diego, USA 80572 (TNKS2 Histone Ribosylation Assay Kit)
T1 sequence (Q9H2K2 1-1166): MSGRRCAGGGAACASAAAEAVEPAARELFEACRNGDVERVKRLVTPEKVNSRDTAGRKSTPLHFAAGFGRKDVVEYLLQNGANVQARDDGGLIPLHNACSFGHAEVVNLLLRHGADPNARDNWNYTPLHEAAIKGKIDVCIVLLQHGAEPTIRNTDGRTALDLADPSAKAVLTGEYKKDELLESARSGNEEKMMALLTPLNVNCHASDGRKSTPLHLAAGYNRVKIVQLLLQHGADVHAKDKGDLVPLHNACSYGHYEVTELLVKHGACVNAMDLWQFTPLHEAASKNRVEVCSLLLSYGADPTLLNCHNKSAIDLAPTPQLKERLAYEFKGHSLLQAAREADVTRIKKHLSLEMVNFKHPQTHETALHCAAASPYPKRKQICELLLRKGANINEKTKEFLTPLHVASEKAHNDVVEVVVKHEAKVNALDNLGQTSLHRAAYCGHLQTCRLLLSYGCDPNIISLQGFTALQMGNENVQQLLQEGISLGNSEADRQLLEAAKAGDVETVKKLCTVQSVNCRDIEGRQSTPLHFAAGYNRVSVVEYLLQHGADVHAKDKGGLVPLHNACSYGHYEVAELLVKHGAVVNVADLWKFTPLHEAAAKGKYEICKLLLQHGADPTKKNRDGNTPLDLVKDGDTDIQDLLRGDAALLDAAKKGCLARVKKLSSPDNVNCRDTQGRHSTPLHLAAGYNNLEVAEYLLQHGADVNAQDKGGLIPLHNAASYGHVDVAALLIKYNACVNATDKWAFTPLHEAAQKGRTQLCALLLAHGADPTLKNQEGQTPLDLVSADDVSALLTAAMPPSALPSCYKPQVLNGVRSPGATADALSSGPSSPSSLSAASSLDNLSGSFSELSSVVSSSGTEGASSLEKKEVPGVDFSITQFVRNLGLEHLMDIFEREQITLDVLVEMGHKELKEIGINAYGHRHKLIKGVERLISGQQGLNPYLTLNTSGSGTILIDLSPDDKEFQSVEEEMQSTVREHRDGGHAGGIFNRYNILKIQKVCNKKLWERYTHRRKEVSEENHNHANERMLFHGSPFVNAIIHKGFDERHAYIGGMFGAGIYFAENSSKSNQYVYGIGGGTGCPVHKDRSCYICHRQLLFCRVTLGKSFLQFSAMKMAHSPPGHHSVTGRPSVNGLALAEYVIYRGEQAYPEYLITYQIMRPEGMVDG

[1] = test system: wildtype Wnt signaling cascade; test: HEK293 TOP assay (Super TopFlash luciferase reporter, Wnt-3a stimulated); assay type: cell-based; settings: Homo sapiens, HEK293 TOP reporter cells, Wnt3a at EC50, 16 hours
Method in brief: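 Compound series (50 μM down to 15 nM, 3.16-fold) diluted from DMSO 50-fold into CAFTY buffer, pH 7.4, 2 mM Ca^2+, 0.01% BSA, applied to Wnt-3a-stimulated HEK293 TopFlash and FOP reporter lines in parallel. Cells seeded 10000/well 24 h before; luciferase signal measured.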

SMILES: CNC(=O)c1[nH]cnc1C(=O)NC1CCC(C(=O)Nc2ccc(F)cc2Cl)CC1C (racemic) [Example 39, N^4-{4-[(2-chloro-4-fluorophenyl)carbamoyl]-2-methylcyclohexyl}-N^5-methyl-1H-imidazole-4,5-dicarboxamide]
- IC50 (TNKS2): 100 nM

SMILES: Cc1c(C(C)N(C)C)cnc2c(C(=O)N[C@H]3CC[C@H](C(=O)Nc4ccc(F)cc4Cl)CC3)cnn12 (mixture of isomers) [Example 55, N-{trans-4-[(2-chloro-4-fluorophenyl)carbamoyl]cyclohexyl}-6-[1-(dimethylamino)ethyl]-7-methylpyrazolo[1,5-a]pyrimidine-3-carboxamide formic acid salt]
- IC50 [1]: 280 nM
- IC50 (TNKS2): 490 nM

SMILES: O=C(NCCN1CCCCC1)c1nc[nH]c1C(=O)N[C@H]1CC[C@H](C(=O)Nc2ccc(F)cc2Cl)CC1 [Example 2, N^5-{trans-4-[(2-chloro-4-fluorophenyl)carbamoyl]cyclohexyl}-N^4-[2-(piperidin-1-yl)ethyl]-1H-imidazole-4,5-dicarboxamide]
- IC50 ([1]; HEK293, 16 h): 25 nM
- IC50 (TNKS2): 230 nM

SMILES: CNC(C)c1cnc2c(C(=O)N[C@H]3CC[C@H](C(=O)Nc4ccc(F)cc4Cl)CC3)cnn2c1C (stereo partly drawn) [Example 54, N-{trans-4-[(2-chloro-4-fluorophenyl)carbamoyl]cyclohexyl}-7-methyl-6-[1-(methylamino)ethyl]pyrazolo[1,5-a]pyrimidine-3-carboxamide formic acid salt]
- IC50 [1]: 620 nM
- IC50 (TNKS2): 680 nM

SMILES: COCC(C)NC(=O)c1nc[nH]c1C(=O)N[C@H]1CC[C@H](C(=O)Nc2cc(N3CCOCC3)ccc2Cl)CC1 (stereo partly drawn) [Example 91, N^5-(trans-4-{[2-chloro-5-(morpholin-4-yl)phenyl]carbamoyl}cyclohexyl)-N^4-(1-methoxypropan-2-yl)-1H-imidazole-4,5-dicarboxamide]
- IC50 ([1]; HEK293, 16 h): 1800 nM
- IC50 (TNKS2): 6800 nM
